Results reported in PMC7265447, “Ultra-rapid glutathionylation of chymotrypsinogen in its molten globule-like conformation: A comparison to archaeal proteins” (Scientific Reports, 2020).

Columns and labels:
[1] = biological target: T1, reduced Bacterioferritin Comigratory Protein 1 (rBcp1) (Saccharolobus solfataricus, UniProt Q97WP9); experiment: loss of reactive Cys, DTNB titration; type: binding; settings: pH 7.4, 0.2 M urea, 25 °C, covalent, 1 -SH/mol
T1 construct: gene bcp-1; recombinant in E. coli BL21(DE3)-RIL (pET30Bcp1), HisTrap purified, 18 kDa band
Source text: loss of reactive Cys, DTNB titration on reduced Bacterioferritin Comigratory Protein 1 (rBcp1)

[2] = biological target: T2, reduced Protein Disulphide Oxidoreductase (rSsPDO) (Saccharolobus solfataricus, UniProt Q980T5); experiment: loss of reactive Cys, DTNB titration; type: binding; settings: pH 7.4, 0.4 M urea, 25 °C, covalent, 2 -SH/mol
T2 construct: gene SSO0192; recombinant in E. coli, HisTrap and Resource Q purified, about 27 kDa band
T2 sequence (Q980T5 1-233): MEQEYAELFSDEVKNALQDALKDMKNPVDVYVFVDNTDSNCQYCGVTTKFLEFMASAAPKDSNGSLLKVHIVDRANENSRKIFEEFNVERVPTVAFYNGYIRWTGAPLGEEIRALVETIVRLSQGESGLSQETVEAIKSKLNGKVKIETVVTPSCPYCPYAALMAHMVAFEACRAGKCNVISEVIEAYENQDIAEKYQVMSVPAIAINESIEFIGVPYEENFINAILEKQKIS
Source text: loss of reactive Cys, DTNB titration on reduced Protein Disulphide Oxidoreductase (rSsPDO)

[3] = biological target: Cys50 (UniProt position 50, STREACAFRDN); experiment: chemical modification; settings: 25 °C; 20 mM Britton-Robinson buffers; reduced, molten globule-like conformation in 0.2 M urea; 2.6 µM protein
[4] = biological target: T3, reduced α-chymotrypsinogen A (rChTg) (Bos taurus, UniProt P00766); experiment: thiol loss, DTNB titration; type: binding; settings: pH 5.0, 0.2 M urea, 25 °C; reduced protein; covalent; 8 -SH/mol
Source text: thiol loss, DTNB titration on reduced α-chymotrypsinogen A (rChTg)

[5] = biological target: Cys45 (UniProt position 45, DDTPGCTREAS); experiment: chemical modification; settings: 25 °C; 20 mM Britton-Robinson buffers; reduced, molten globule-like conformation in 0.2 M urea; 2.6 µM protein
[6] = biological target: T3, reduced α-chymotrypsinogen A (rChTg); experiment: Cys-DNB adduct absorbance at […] nm; type: binding; settings: pH 5.0, 0.28 M urea, 25 °C; reduced protein; covalent; average of 10 -SH
[7] = biological target: T2, reduced Protein Disulphide Oxidoreductase (rSsPDO); experiment: Cys-DNB adduct absorbance at […] nm; type: binding; settings: pH 7.4, 0.4 M urea, 25 °C, covalent, 3 -SH/mol
[8] = biological target: T1, reduced Bacterioferritin Comigratory Protein 1 (rBcp1); experiment: Cys-DNB adduct absorbance at […] nm; type: binding; settings: pH 7.4, 0.12 M urea, 25 °C, covalent, 1 -SH/mol
[9] = biological target: T2, reduced Protein Disulphide Oxidoreductase (rSsPDO); experiment: Cys-NBD adduct absorbance at […] nm; type: binding; settings: pH 7.4, 0.4 M urea, 25 °C, covalent, 2 -SH/mol
[10] = biological target: T3, reduced α-chymotrypsinogen A (rChTg); experiment: Cys-NBD adduct absorbance at […] nm; type: binding; settings: pH 5.0, 0.28 M urea, 25 °C; reduced protein; covalent; average of 10 -SH
[11] = biological target: T1, reduced Bacterioferritin Comigratory Protein 1 (rBcp1); experiment: Cys-NBD adduct absorbance at […] nm; type: binding; settings: pH 7.4, 0.12 M urea, 25 °C, covalent, 1 -SH/mol

T1 sequence (Q97WP9 entry or part of it): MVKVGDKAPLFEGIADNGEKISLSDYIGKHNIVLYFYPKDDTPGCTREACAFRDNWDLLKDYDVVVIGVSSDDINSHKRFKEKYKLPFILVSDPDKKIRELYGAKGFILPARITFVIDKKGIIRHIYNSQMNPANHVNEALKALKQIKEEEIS

NCCSSCCN [cystamine]
Reduced Bcp1 / k (M^-1 s^-1) (-SH/mole Bcp1) [1]: 33 ± 3 M⁻¹ s⁻¹ | Reduced SsPDO / k (M^-1 s^-1) (-SH/mole SsPDO) [2]: 20 ± 2 M⁻¹ s⁻¹

Bacterioferritin comigratory protein 1 (Bcp1) C45S mutant, reduced (rC45S) (Sulfolobus solfataricus (Saccharolobus solfataricus); C45S)
pKa [3]: 7.6 ± 0.1

N[C@@H](CSSC[C@H](N)C(=O)O)C(=O)O [cystine]
Reduced Bcp1 / k (M^-1 s^-1) (-SH/mole Bcp1) [1]: 115 ± 10 M⁻¹ s⁻¹ | Reduced ChTg / k (M^-1 s^-1) (-SH/mol ChTg) [4]: 0.56 ± 0.02 M⁻¹ s⁻¹ | Reduced SsPDO / k (M^-1 s^-1) (-SH/mole SsPDO) [2]: 10 ± 2 M⁻¹ s⁻¹

Bacterioferritin comigratory protein 1 (Bcp1) C50S mutant, reduced (rC50S) (Sulfolobus solfataricus (Saccharolobus solfataricus); C50S)
pKa [5]: 7.9 ± 0.1

O=[N+]([O-])c1ccc(Cl)c([N+](=O)[O-])c1 [CDNB, 1-chloro-2,4-dinitrobenzene]
Reduced ChTg / k (M^-1 s^-1) (-SH/mol ChTg) [6]: 0.19 ± 0.01 M⁻¹ s⁻¹ | Reduced SsPDO / k (M^-1 s^-1) (-SH/mole SsPDO) [7]: 1.6 ± 0.1 M⁻¹ s⁻¹ | Reduced Bcp1 / k (M^-1 s^-1) (-SH/mole Bcp1) [8]: 0.55 ± 0.03 M⁻¹ s⁻¹

O=[N+]([O-])c1ccc(Cl)c2nonc12 [NBD-Cl, 4-chloro-7-nitrobenzofurazan]
Reduced SsPDO / k (M^-1 s^-1) (-SH/mole SsPDO) [9]: 72 ± 3 M⁻¹ s⁻¹ | Reduced ChTg / k (M^-1 s^-1) (-SH/mol ChTg) [10]: 12.6 ± 0.5 M⁻¹ s⁻¹ | Reduced Bcp1 / k (M^-1 s^-1) (-SH/mole Bcp1) [11]: 27 ± 3 M⁻¹ s⁻¹

N[C@@H](CCSSCC[C@H](N)C(=O)O)C(=O)O [homocystine]
Reduced Bcp1 / k (M^-1 s^-1) (-SH/mole Bcp1) [1]: 15 ± 1 M⁻¹ s⁻¹ | Reduced SsPDO / k (M^-1 s^-1) (-SH/mole SsPDO) [2]: 6 ± 1 M⁻¹ s⁻¹
